Data taken from patent publication US4722931A, “Calcium antagonist” (Laboratorios Delagrange, priority 1984, dated 1988).
Where a name gives a salt, the structure may show the parent alone. Read-outs that look alike come from different tables or passages of the source.

Assays:
SHR rats = assay: Antihypertensive efficacy in SHR rats (systolic blood pressure, tail cuff); type: in vivo, spontaneously hypertensive rats (SHR); settings: for maximum decrease of blood pressure, mm Hg / inhibition in vivo at 8 mg/kg: n = 5; for inhibition in vivo at 8 mg/kg: Rattus norvegicus, po, Table 2, read-out: maximum decrease of blood pressure, %; for in vivo antihypertensive activity, in words: p.os
Method: The systolic blood pressure was measured on the tail of conscious, spontaneously hypertensive rats (SHR), by means of an inflatable rubber cuff and a Digital Pressure meter LE 5000 (Letica Instruments, Barcelone, Spain). Measurements were carried out before administration of the substance, as well as 30 minutes, 1 h, 2, 6, and 24 hours afterwards, respectively. The animals were kept in pre-warmed plastic cylinders during the measurements. The rats with a blood pressure lesser than 160 mm. Hg were discarded. Each compound was tested in 5 animals. Compounds of this invention, or nitrendipine which was used as positive control were given orally in the form of suspensions in 5% acacia gum.

[1] = tested on: KCl depolarized rat aorta; assay: Inhibitory effects on rat aorta contractions induced by KCl (in vitro); type: cell-based, Wistar rats; settings: for activity relative to compound 7 (IC 50): same test, compared with compound 7
From the text: Inhibitory effects on rat aorta contractions induced by KCl: […]

[2] = KCl 80 mM depolarized rat aorta, Table 1, read-out: IC × 10^-8
[3] = rat aorta contractions induced by KCl 80 mM
[4] = rat aorta contractions induced by KCl 80 mM, read-out: IC 50

SMILES: CCOC(=O)C1=C(C)NC(C)=C(C(=O)OC)C1c1cc(OC)c(OC)c(OC)c1 (stereo not drawn) [Compound 1, 1,4-dihydro-2,6-dimethyl-4-(3',4',5'-trimethoxyphenyl)-3,5-pyridinedicarboxylic acid, methyl ethyl ester]
- maximum decrease of blood pressure, mm Hg (SHR rats; 8 mg./kg. p.os): 9.8 mm Hg
- inhibition in vivo at 8 mg/kg (SHR rats; 8 mg./kg. p.os): 5%
- IC50 [1, 2]: > 100 nM
- in vitro activity, in words [1, 3]: little or no activity

SMILES: CCOC(=O)C1=C(C)NC(C)=C(C(=O)OC)C1c1ccc(OC)c(OC)c1 (stereo not drawn) [Compound 2, 1,4-dihydro-2,6-dimethyl-4-(3',4'-dimethoxyphenyl)-3,5-pyridinedicarboxylic acid, methyl ethyl ester]
- IC50 [1, 2]: > 100 nM
- in vitro activity, in words [1, 3]: little or no activity

SMILES: CCOC(=O)C1=C(C)NC(C)=C(C(=O)OC)C1c1cc(OC)c(O)c(OC)c1 (stereo not drawn) [Compound 3, 1,4-dihydro-2,6-dimethyl-4-(3',5'-dimethoxy-4'-hydroxyphenyl)-3,5-pyridinedicarboxylic acid, methyl ethyl ester]
- IC50 [1, 2]: > 100 nM
- in vitro activity, in words [1, 3]: little or no activity

SMILES: CCOC(=O)C1=C(C)NC(C)=C(C(=O)OC)C1c1cccc(OC)c1OC (stereo not drawn) [Compound 4, 1,4-dihydro-2,6-dimethyl-4-(2',3'-dimethoxyphenyl)-3,5-pyridinedicarboxylic acid, ethyl methyl ester]
- IC50 [1, 2]: > 100 nM

SMILES: CCOC(=O)C1=C(C)NC(C)=C(C(=O)OC)C1c1cc(OC)cc(OC)c1 (stereo not drawn) [Compound 5, 1,4-dihydro-2,6-dimethyl-4-(3',5'-dimethoxyphenyl)-3,5-pyridinedicarboxylic acid, ethyl methyl ester]
- IC50 [1, 2]: 92 nM

SMILES: CCOC(=O)C1=C(C)NC(C)=C(C(=O)OC)C1c1ccccc1OCOC (stereo not drawn) [Compound 6, 1,4-dihydro-2,6-dimethyl-4-(2'-methoxymethoxy-phenyl)-3,5-pyridinedicarboxylic acid, ethyl methyl ester]
- maximum decrease of blood pressure, mm Hg (SHR rats; 8 mg./kg. p.os): 34 mm Hg
- inhibition in vivo at 8 mg/kg (SHR rats; 8 mg./kg. p.os): 15.2%
- in vivo antihypertensive activity, in words (SHR rats; SHR rats): also active in vivo
- IC50 [1, 2]: 12 nM

SMILES: CCOC(=O)C1=C(C)NC(C)=C(C(=O)OC)C1c1cccc2c1OCO2 (stereo not drawn) [Compound 7, 1,4-dihydro-2,6-dimethyl-4-(2',3'-methylenedioxyphenyl)-3,5-pyridinedicarboxylic acid, ethyl methyl ester]
- decreasing blood pressure by (SHR rats; 8 mg./kg. p.os, SHR rats): 30%
- maximum decrease of blood pressure, mm Hg (SHR rats; 8 mg./kg. p.os): 65 mm Hg
- inhibition in vivo at 8 mg/kg (SHR rats; 8 mg./kg. p.os): 33%
- in vivo antihypertensive activity, in words (SHR rats; SHR rats): as active as nitrendipine
- in vivo antihypertensive activity, in words (SHR rats; SHR rats, listed as IQB-837 V): very active
- IC50 [1, 2]: 3.1 nM
- in vitro activity, in words [1, 3]: the most active within the series of methyl ethyl ester derivatives
- in vitro activity, in words ([1]; rat aorta contractions induced by KCl 80 mM, listed as IQB-837 V): very active
- IC50 [1, 4]: 3.5 nM

SMILES: CCOC(=O)C1=C(C)NC(C)=C(C(=O)OC)C1c1cccc2c1OCCO2 (stereo not drawn) [Compound 8, 1,4-dihydro-2,6-dimethyl-4-(2',3'-ethylenedioxyphenyl)-3,5-pyridinedicarboxylic acid, methyl ethyl ester]
- maximum decrease of blood pressure, mm Hg (SHR rats; 8 mg./kg. p.os): 12 mm Hg
- inhibition in vivo at 8 mg/kg (SHR rats; 8 mg./kg. p.os): 7.2%
- in vivo antihypertensive activity, in words (SHR rats; SHR rats): a little antihypertensive effect
- in vivo antihypertensive activity, in words (SHR rats; SHR rats, listed as IQB-838 V): very active
- IC50 [1, 2]: 45 nM
- in vitro activity, in words [1, 3]: rather active in vitro
- in vitro activity, in words ([1]; rat aorta contractions induced by KCl 80 mM, listed as IQB-838 V): very active

SMILES: COC(=O)C1=C(C)NC(C)=C(C(=O)OC)C1c1cccc2c1OCO2 [Compound 9, 1,4-dihydro-2,6-dimethyl-4-(2',3'-methylenedioxyphenyl)-3,5-pyridinedicarboxylic acid, dimethyl ester]
- IC50 [1, 2]: 83 nM

SMILES: COC(=O)C1=C(C)NC(C)=C(C(=O)OCC(C)C)C1c1cccc2c1OCO2 (stereo not drawn) [Compound 10, 1,4-dihydro-2,6-dimethyl-4-(2',3'-methylenedioxyphenyl)-3,5-pyridinedicarboxylic acid, methyl isobutyl ester]
- maximum decrease of blood pressure, mm Hg (SHR rats; 8 mg./kg. p.os): 48 mm Hg
- inhibition in vivo at 8 mg/kg (SHR rats; 8 mg./kg. p.os): 23.5%
- in vivo antihypertensive activity, in words (SHR rats; SHR rats): also active in vivo
- IC50 [1, 2]: 12 nM

SMILES: COCCOC(=O)C1=C(C)NC(C)=C(C(=O)OC(C)C)C1c1cccc2c1OCO2 (stereo not drawn) [Compound 11, 1,4-dihydro-2,6-dimethyl-4-(2',3'-methylenedioxyphenyl)-3,5-pyridinedicarboxylic acid, isopropyl methoxyethyl ester]
- IC50 [1, 2]: 91 nM

SMILES: CC1=C(C(=O)OC(C)C)C(c2cccc3c2OCO3)C(C(=O)OC(C)C)=C(C)N1 [Compound 12, 1,4-dihydro-2,6-dimethyl-4-(2',3'-methylenedioxyphenyl)-3,5-pyridinedicarboxylic acid, diisopropyl ester]
- IC50 [1, 2]: > 100 nM

SMILES: COC(=O)C1=C(C)NC(C)=C(C(=O)OC(C)C)C1c1cccc2c1OCO2 (stereo not drawn) [Compound 13, 1,4-dihydro-2,6-dimethyl-4-(2',3'-methylenedioxyphenyl)-3,5-pyridinedicarboxylic acid, methyl isopropyl ester]
- maximum decrease of blood pressure, mm Hg (SHR rats; 8 mg./kg. p.os): 10 mm Hg
- inhibition in vivo at 8 mg/kg (SHR rats; 8 mg./kg. p.os): 5.2%
- IC50 [1, 2]: 34 nM

SMILES: CCOC(=O)C1=C(C)NC(C)=C(C(=O)OCC)C1c1cccc2c1OCO2 [Compound 14, 1,4-dihydro-2,6-dimethyl-4-(2',3'-methylenedioxyphenyl)-3,5-pyridinedicarboxylic acid, diethyl ester]
- IC50 [1, 2]: > 100 nM

SMILES: CCOC(=O)C1=C(C)NC(C)=C(C(=O)OC(C)C)C1c1cccc2c1OCO2 (stereo not drawn) [Compound 15, 1,4-dihydro-2,6-dimethyl-4-(2',3'-methylenedioxyphenyl)-3,5-pyridinedicarboxylic acid, ethyl isopropyl ester]
- maximum decrease of blood pressure, mm Hg (SHR rats; 8 mg./kg. p.os): 62 mm Hg
- inhibition in vivo at 8 mg/kg (SHR rats; 8 mg./kg. p.os): 32.4%
- in vivo antihypertensive activity, in words (SHR rats; SHR rats): also active in vivo
- IC50 [1, 2]: 2.1 nM
- IC50 [1, 4]: 2.1 nM
- activity relative to compound 7 (IC 50) [1]: as active as compound 7

SMILES: COCCOC(=O)C1=C(C)NC(C)=C(C(=O)OCCOC)C1c1cccc2c1OCO2 [Compound 16, 1,4-dihydro-2,6-dimethyl-4-(2',3'-methylenedioxyphenyl)-3,5-pyridinedicarboxylic acid, dimethoxyethyl ester]
- IC50 [1, 2]: > 100 nM

SMILES: COC(=O)C1=C(C)NC(C)=C(C(=O)OCc2ccccn2)C1c1cccc2c1OCO2 (stereo not drawn) [Compound 17, 1,4-dihydro-2,6-dimethyl-4-(2',3'-methylenedioxyphenyl)-3,5-pyridinedicarboxylic acid, methyl, 2-pyridylmethyl ester, hydrochloride]
- IC50 [1, 2]: > 100 nM

SMILES: COC(=O)C1=C(C)NC(C)=C(C(=O)OC)C1c1ccccc1[N+](=O)[O-] [Nifedipine, nifedipine, reference compound]
- IC50 [1, 2]: 7.1 nM
- IC50 [1, 4]: 7.5 nM
- activity relative to compound 7 (IC 50) [1]: about two times less active than compound 7

SMILES: CCOC(=O)C1=C(C)NC(C)=C(C(=O)OC)C1c1cccc([N+](=O)[O-])c1 (stereo not drawn) [nitrendipine, reference compound]
- maximum decrease of blood pressure, mm Hg (SHR rats; 8 mg./kg. p.os): 54 mm Hg
- inhibition in vivo at 8 mg/kg (SHR rats; 8 mg./kg. p.os): 26.3%
